Measurements reported in patent US11345912B2, “Directed evolution of multivalent glycopeptides that tightly bind to target proteins” (Brandeis University, priority 2013, dated 2022).
*1 amine or outer side, *2 acyl side, *3 side chain or, on linkers, in order; H or OH if unused. Where a SMILES comes first, the peptide text is derived from it. [ ]: non-standard residue; d: D form. The star is where a group is joined. X1 = O=C([C@H](CCc1cn(C2CCC(OC3O[C@H](CO[C@H]4O[C@H](CO[C@H]5O[C@H](CO)[C@@H](O)[C@H](O)[C@@H]5O[C@H]5O[C@H](CO)[C@@H](O)[C@H](O)[C@@H]5O)[C@@H](O)[C@H](O[C@H]5O[C@H](CO)[C@@H](O)[C@H](O)[C@@H]5O[C@H]5O[C@H](CO)[C@@H](O)[C@H](O)[C@@H]5O)[C@@H]4O)[C@@H](O)[C@H](O[C@H]4O[C@H](CO)[C@@H](O)[C@H](O)[C@@H]4O[C@H]4O[C@H](CO)[C@@H](O)[C@H](O)[C@@H]4O[C@H]4O[C@H](CO)[C@@H](O)[C@H](O)[C@@H]4O)[C@@H]3O)CC2)nn1)N[*:1])[*:2]; For = O=C*

System: 2G12
Test: Binding curve and KD determination of 2G12-glycopeptide interaction (radiolabeled glycopeptide, protein G magnetic bead capture, scintillation counting)
How it was run: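 Radiolabeled glycopeptide (<4 pmol) from PURE-system translation with click glycosylation was incubated with 100 nM 2G12 at room temperature. Complexes were captured on protein G beads and eluted at 70° C. Bound and unbound fractions were counted by scintillation, run at least in triplicate, and KD derived from binding curves.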

SMILES | Fmax [%] (Table 6 mutational analysis, radioactive bead binding assay) | Kd (Table 6 mutational analysis, radioactive bead binding assay, ribosomally translated) | binding to 2G12 after truncation (in words) (truncated clones, Table 6) | Fmax [%] (Table 4, maximal fraction bound from curve fit, error = standard error of fit) | Kd (Table 4, ribosomally translated radiolabeled glycopeptide with His6/FLAG tag, room temperature, fit Fbound=(Fmax[2G12])/(KD+[2G12]), error = standard error of fit)
CC[C@H](C)[C@H](NC(=O)[C@H](CO)NC(=O)[C@H](CCCNC(=N)N)NC(=O)[C@H](CCc1cn(C2CCC(OC3O[C@H](CO[C@H]4O[C@H](CO[C@H]5O[C@H](CO)[C@@H](O)[C@H](O)[C@@H]5O[C@H]5O[C@H](CO)[C@@H](O)[C@H](O)[C@@H]5O)[C@@H](O)[C@H](O[C@H]5O[C@H](CO)[C@@H](O)[C@H](O)[C@@H]5O[C@H]5O[C@H](CO)[C@@H](O)[C@H](O)[C@@H]5O)[C@@H]4O)[C@@H](O)[C@H](O[C@H]4O[C@H](CO)[C@@H](O)[C@H](O)[C@@H]4O[C@H]4O[C@H](CO)[C@@H](O)[C@H](O)[C@@H]4O[C@H]4O[C@H](CO)[C@@H](O)[C@H](O)[C@@H]4O)[C@@H]3O)CC2)nn1)NC=O)C(=O)N1CCC[C@H]1C(=O)N[C@@H](Cc1c[nH]c2ccccc12)C(=O)N[C@@H](Cc1ccc(O)cc1)C(=O)N[C@H](C(=O)N[C@@H](Cc1ccc(O)cc1)C(=O)N[C@@H](CCCNC(=N)N)C(=O)N[C@@H](Cc1c[nH]c2ccccc12)C(=O)N[C@@H](CC(C)C)C(=O)N1CCC[C@H]1C(=O)N[C@@H](CC(N)=O)C(=O)NCC(=O)N[C@@H](CO)C(=O)NCC(=O)N[C@@H](CO)C(=O)N[C@@H](CC(C)C)C(=O)NCC(=O)N[C@@H](Cc1c[nH]cn1)C(=O)N[C@@H](Cc1c[nH]cn1)C(=O)N[C@@H](Cc1c[nH]cn1)C(=O)N[C@@H](Cc1c[nH]cn1)C(=O)N[C@@H](Cc1c[nH]cn1)C(=O)N[C@@H](Cc1c[nH]cn1)C(=O)N[C@@H](CCCNC(=N)N)C(=O)N[C@@H](CC(=O)O)C(=O)N[C@@H](Cc1ccc(O)cc1)C(=O)N[C@@H](CCCCN)C(=O)N[C@@H](CC(=O)O)C(=O)N[C@@H](CC(=O)O)C(=O)N[C@@H](CC(=O)O)C(=O)N[C@@H](CC(=O)O)C(=O)N[C@@H](CCCCN)C(=O)O)[C@@H](C)O (some centres unmarked) [Clone 10V1-Δ19, XRSIPWYTYRWLPN] (For-[X1]RSIPWYTYRWLPNGSGSLGHHHHHHRDYKDDDDK-OH; C-terminus assumed) | 20% | ~7.5 nM | tight binding | – | –
CC[C@H](C)[C@H](NC(=O)[C@H](CCC(=O)O)NC(=O)CNC(=O)[C@H](Cc1c[nH]c2ccccc12)NC(=O)[C@@H](NC(=O)[C@@H](NC(=O)[C@@H]1CCCN1C(=O)[C@H](CCc1cn(C2CCC(OC3O[C@H](CO[C@H]4O[C@H](CO[C@H]5O[C@H](CO)[C@@H](O)[C@H](O)[C@@H]5O[C@H]5O[C@H](CO)[C@@H](O)[C@H](O)[C@@H]5O)[C@@H](O)[C@H](O[C@H]5O[C@H](CO)[C@@H](O)[C@H](O)[C@@H]5O[C@H]5O[C@H](CO)[C@@H](O)[C@H](O)[C@@H]5O)[C@@H]4O)[C@@H](O)[C@H](O[C@H]4O[C@H](CO)[C@@H](O)[C@H](O)[C@@H]4O[C@H]4O[C@H](CO)[C@@H](O)[C@H](O)[C@@H]4O[C@H]4O[C@H](CO)[C@@H](O)[C@H](O)[C@@H]4O)[C@@H]3O)CC2)nn1)NC(=O)[C@H](CC(C)C)NC(=O)[C@H](Cc1ccc(O)cc1)NC(=O)[C@@H](NC(=O)[C@H](Cc1ccc(O)cc1)NC(=O)[C@@H](NC(=O)[C@@H]1CCCN1C(=O)[C@@H](NC(=O)[C@H](CO)NC(=O)[C@H](CC(C)C)NC(=O)[C@H](CCc1cn(C2CCC(OC3O[C@H](CO[C@H]4O[C@H](CO[C@H]5O[C@H](CO)[C@@H](O)[C@H](O)[C@@H]5O[C@H]5O[C@H](CO)[C@@H](O)[C@H](O)[C@@H]5O)[C@@H](O)[C@H](O[C@H]5O[C@H](CO)[C@@H](O)[C@H](O)[C@@H]5O[C@H]5O[C@H](CO)[C@@H](O)[C@H](O)[C@@H]5O)[C@@H]4O)[C@@H](O)[C@H](O[C@H]4O[C@H](CO)[C@@H](O)[C@H](O)[C@@H]4O[C@H]4O[C@H](CO)[C@@H](O)[C@H](O)[C@@H]4O[C@H]4O[C@H](CO)[C@@H](O)[C@H](O)[C@@H]4O)[C@@H]3O)CC2)nn1)NC(=O)[C@H](CCCNC(=N)N)NC(=O)[C@H](Cc1ccccc1)NC(=O)[C@@H]1CCCN1C(=O)[C@H](CC(N)=O)NC(=O)[C@@H](NC(=O)[C@H](CC(N)=O)NC(=O)[C@@H](NC(=O)[C@H](CO)NC(=O)[C@@H](NC(=O)[C@@H](NC(=O)[C@@H](NC(=O)[C@@H]1CCCN1C(=O)[C@H](CC(C)C)NC(=O)[C@@H](NC(=O)[C@H](CCc1cn(C2CCC(OC3O[C@H](CO[C@H]4O[C@H](CO[C@H]5O[C@H](CO)[C@@H](O)[C@H](O)[C@@H]5O[C@H]5O[C@H](CO)[C@@H](O)[C@H](O)[C@@H]5O)[C@@H](O)[C@H](O[C@H]5O[C@H](CO)[C@@H](O)[C@H](O)[C@@H]5O[C@H]5O[C@H](CO)[C@@H](O)[C@H](O)[C@@H]5O)[C@@H]4O)[C@@H](O)[C@H](O[C@H]4O[C@H](CO)[C@@H](O)[C@H](O)[C@@H]4O[C@H]4O[C@H](CO)[C@@H](O)[C@H](O)[C@@H]4O[C@H]4O[C@H](CO)[C@@H](O)[C@H](O)[C@@H]4O)[C@@H]3O)CC2)nn1)NC=O)C(C)C)[C@@H](C)O)[C@@H](C)CC)[C@@H](C)CC)[C@@H](C)O)C(C)C)[C@@H](C)CC)[C@@H](C)O)[C@@H](C)O)[C@@H](C)CC)[C@@H](C)O)C(=O)NCC(=O)N[C@@H](CO)C(=O)NCC(=O)N[C@@H](CO)C(=O)N[C@@H](CC(C)C)C(=O)NCC(=O)N[C@@H](Cc1c[nH]cn1)C(=O)N[C@@H](Cc1c[nH]cn1)C(=O)N[C@@H](Cc1c[nH]cn1)C(=O)N[C@@H](Cc1c[nH]cn1)C(=O)N[C@@H](Cc1c[nH]cn1)C(=O)N[C@@H](Cc1c[nH]cn1)C(=O)N[C@@H](CCCNC(=N)N)C(=O)N[C@@H](CC(=O)O)C(=O)N[C@@H](Cc1ccc(O)cc1)C(=O)N[C@@H](CCCCN)C(=O)N[C@@H](CC(=O)O)C(=O)N[C@@H](CC(=O)O)C(=O)N[C@@H](CC(=O)O)C(=O)N[C@@H](CC(=O)O)C(=O)N[C@@H](CCCCN)C(=O)O (some centres unmarked) [Clone 10V8, XVLPTIISTNVNPFRXLSIPTYTYLXPITWGEI] | – | – | – | 94 ± 2.0% | 4.6 ± 0.34 nM
